Measured values reported in PubChem BioAssay (NCI).
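Tested at 5 concentrations; 48 h exposure; 96-well plates; endpoints linearly interpolated, else capped at highest concentration. TGI marks complete inhibition of growth.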

Key:
Assay in all cases: growth of human tumour cells (NCI), 48 h
786-0 renal = test system: 786-0 renal
A498 renal = test system: A498 renal
A549 NSCLC = test system: A549 NSCLC
ACHN renal = test system: ACHN renal
BT-549 breast = test system: BT-549 breast
CAKI-1 renal = test system: CAKI-1 renal
CCRF-CEM leukemia = test system: CCRF-CEM leukemia
COLO 205 colon = test system: COLO 205 colon
DU-145 prostate = test system: DU-145 prostate
EKVX NSCLC = test system: EKVX NSCLC
HCC-2998 colon = test system: HCC-2998 colon
HCT-116 colon = test system: HCT-116 colon
HCT-15 colon = test system: HCT-15 colon
HOP-62 NSCLC = test system: HOP-62 NSCLC
HOP-92 NSCLC = test system: HOP-92 NSCLC
HS 578T breast = test system: HS 578T breast
HT29 colon = test system: HT29 colon
IGROV1 ovarian = test system: IGROV1 ovarian
K-562 leukemia = test system: K-562 leukemia
KM12 colon = test system: KM12 colon
LOX IMVI melanoma = test system: LOX IMVI melanoma
M14 melanoma = test system: M14 melanoma
MALME-3M melanoma = test system: MALME-3M melanoma
MCF7 breast = test system: MCF7 breast
MDA-MB-435 = test system: MDA-MB-435
MDA-N = test system: MDA-N
MOLT-4 leukemia = test system: MOLT-4 leukemia
NCI-H226 lung = test system: NCI-H226 lung
NCI-H23 lung = test system: NCI-H23 lung
NCI-H460 lung = test system: NCI-H460 lung
NCI-H522 lung = test system: NCI-H522 lung
NCI/ADR-RES ovarian = test system: NCI/ADR-RES ovarian
OVCAR-3 ovarian = test system: OVCAR-3 ovarian
OVCAR-4 ovarian = test system: OVCAR-4 ovarian
OVCAR-5 ovarian = test system: OVCAR-5 ovarian
OVCAR-8 ovarian = test system: OVCAR-8 ovarian
PC-3 prostate = test system: PC-3 prostate
RPMI-8226 leukemia = test system: RPMI-8226 leukemia
RXF 393 renal = test system: RXF 393 renal
SF-268 CNS = test system: SF-268 CNS
SF-295 CNS = test system: SF-295 CNS
SK-MEL-28 melanoma = test system: SK-MEL-28 melanoma
SK-MEL-5 melanoma = test system: SK-MEL-5 melanoma
SK-OV-3 ovarian = test system: SK-OV-3 ovarian
SN12C renal = test system: SN12C renal
SNB-19 CNS = test system: SNB-19 CNS
SW-620 colon = test system: SW-620 colon
T-47D breast = test system: T-47D breast
TK-10 renal = test system: TK-10 renal
U251 CNS = test system: U251 CNS
UACC-257 melanoma = test system: UACC-257 melanoma
UACC-62 melanoma = test system: UACC-62 melanoma
UO-31 renal = test system: UO-31 renal
HL-60(TB) leukemia = test system: HL-60(TB) leukemia
MDA-MB-231 breast = test system: MDA-MB-231 breast
SF-539 CNS = test system: SF-539 CNS
SK-MEL-2 melanoma = test system: SK-MEL-2 melanoma
SNB-75 CNS = test system: SNB-75 CNS
SR leukemia = test system: SR leukemia

## CC(=O)Nc1ccc2c(c1)C(=Nc1ccc(C(=O)O)cc1)c1ccccc1-2
786-0 renal
  TGI: > 100 µM
A498 renal
  TGI: > 100 µM
A549 NSCLC
  TGI: > 100 µM
ACHN renal
  TGI: > 100 µM
BT-549 breast
  TGI: > 100 µM
CAKI-1 renal
  TGI: > 100 µM
CCRF-CEM leukemia
  TGI: > 100 µM
COLO 205 colon
  TGI: > 100 µM
DU-145 prostate
  TGI: > 100 µM
EKVX NSCLC
  TGI: 84.9 µM
HCC-2998 colon
  TGI: > 100 µM
HCT-116 colon
  TGI: > 100 µM
HCT-15 colon
  TGI: > 100 µM
HOP-62 NSCLC
  TGI: > 100 µM
HOP-92 NSCLC
  TGI: > 100 µM
HS 578T breast
  TGI: > 100 µM
HT29 colon
  TGI: > 100 µM
IGROV1 ovarian
  TGI: > 100 µM
K-562 leukemia
  TGI: > 100 µM
KM12 colon
  TGI: > 100 µM
LOX IMVI melanoma
  TGI: > 100 µM
M14 melanoma
  TGI: > 100 µM
MALME-3M melanoma
  TGI: > 100 µM
MCF7 breast
  TGI: > 100 µM
MDA-MB-435
  TGI: > 100 µM
MDA-N
  TGI: > 100 µM
MOLT-4 leukemia
  TGI: > 100 µM
NCI-H226 lung
  TGI: 87.1 µM
NCI-H23 lung
  TGI: > 100 µM
NCI-H460 lung
  TGI: > 100 µM
NCI-H522 lung
  TGI: > 100 µM
NCI/ADR-RES ovarian
  TGI: > 100 µM
OVCAR-3 ovarian
  TGI: > 100 µM
OVCAR-4 ovarian
  TGI: > 100 µM
OVCAR-5 ovarian
  TGI: > 100 µM
OVCAR-8 ovarian
  TGI: > 100 µM
PC-3 prostate
  TGI: > 100 µM
RPMI-8226 leukemia
  TGI: > 100 µM
RXF 393 renal
  TGI: > 100 µM
SF-268 CNS
  TGI: > 100 µM
SF-295 CNS
  TGI: > 100 µM
SK-MEL-28 melanoma
  TGI: > 100 µM
SK-MEL-5 melanoma
  TGI: > 100 µM
SK-OV-3 ovarian
  TGI: > 100 µM
SN12C renal
  TGI: > 100 µM
SNB-19 CNS
  TGI: > 100 µM
SW-620 colon
  TGI: > 100 µM
T-47D breast
  TGI: > 100 µM
TK-10 renal
  TGI: > 100 µM
U251 CNS
  TGI: > 100 µM
UACC-257 melanoma
  TGI: > 100 µM
UACC-62 melanoma
  TGI: > 100 µM
UO-31 renal
  TGI: > 100 µM

## C=C1C(=O)OC2C3C(=C)[C@@H](OC(C)=O)CC3C(C)=CC(OC(=O)C(C)(O)C(C)OC(C)=O)[C@@H]12 (some centres undefined)
786-0 renal
  TGI: 24.2 µM
A498 renal
  TGI: 32.3 µM
A549 NSCLC
  TGI: 77.8 µM
ACHN renal
  TGI: 24.8 µM
BT-549 breast
  TGI: 26.7 µM
CAKI-1 renal
  TGI: 12.4 µM
CCRF-CEM leukemia
  TGI: 7.51 µM
COLO 205 colon
  TGI: 15.9 µM
DU-145 prostate
  TGI: 30.3 µM
EKVX NSCLC
  TGI: 30.2 µM
HCC-2998 colon
  TGI: 29.7 µM
HCT-116 colon
  TGI: 17.9 µM
HCT-15 colon
  TGI: 22 µM
HL-60(TB) leukemia
  TGI: 5.57 µM
HOP-62 NSCLC
  TGI: 46.6 µM
HS 578T breast
  TGI: 40.9 µM
HT29 colon
  TGI: 19.4 µM
IGROV1 ovarian
  TGI: 21.3 µM
K-562 leukemia
  TGI: 14.8 µM
KM12 colon
  TGI: 28.5 µM
LOX IMVI melanoma
  TGI: 19.4 µM
M14 melanoma
  TGI: 19.7 µM
MALME-3M melanoma
  TGI: 20.2 µM
MCF7 breast
  TGI: 22.9 µM
MDA-MB-231 breast
  TGI: 34.1 µM
MDA-MB-435
  TGI: 28.3 µM
MDA-N
  TGI: 18.5 µM
MOLT-4 leukemia
  TGI: > 100 µM
NCI-H226 lung
  TGI: 48.4 µM
NCI-H23 lung
  TGI: 27.3 µM
NCI-H460 lung
  TGI: 44 µM
NCI-H522 lung
  TGI: 3.21 µM
OVCAR-3 ovarian
  TGI: 21.8 µM
OVCAR-4 ovarian
  TGI: 23.3 µM
OVCAR-5 ovarian
  TGI: 24.9 µM
OVCAR-8 ovarian
  TGI: 37.9 µM
PC-3 prostate
  TGI: 30.7 µM
RPMI-8226 leukemia
  TGI: 65.7 µM
RXF 393 renal
  TGI: 17.4 µM
SF-268 CNS
  TGI: 37.9 µM
SF-295 CNS
  TGI: > 100 µM
SF-539 CNS
  TGI: 31.9 µM
SK-MEL-2 melanoma
  TGI: 20.6 µM
SK-MEL-28 melanoma
  TGI: 27.2 µM
SK-MEL-5 melanoma
  TGI: 20.1 µM
SK-OV-3 ovarian
  TGI: > 100 µM
SN12C renal
  TGI: 27.8 µM
SNB-19 CNS
  TGI: > 100 µM
SNB-75 CNS
  TGI: 28.4 µM
SR leukemia
  TGI: 68.9 µM
SW-620 colon
  TGI: 10.7 µM
T-47D breast
  TGI: 39 µM
TK-10 renal
  TGI: 18.4 µM
U251 CNS
  TGI: 30.5 µM
UACC-257 melanoma
  TGI: 23.2 µM
UACC-62 melanoma
  TGI: 25.8 µM
UO-31 renal
  TGI: 24.9 µM

## CC1C2CC(CC2=O)C1(C)C (centres undefined)
786-0 renal
  TGI: > 100 µM
A498 renal
  TGI: > 100 µM
A549 NSCLC
  TGI: > 100 µM
ACHN renal
  TGI: > 100 µM
BT-549 breast
  TGI: > 100 µM
CAKI-1 renal
  TGI: > 100 µM
CCRF-CEM leukemia
  TGI: > 100 µM
COLO 205 colon
  TGI: > 100 µM
DU-145 prostate
  TGI: > 100 µM
EKVX NSCLC
  TGI: > 100 µM
HCC-2998 colon
  TGI: > 100 µM
HCT-116 colon
  TGI: > 100 µM
HL-60(TB) leukemia
  TGI: > 100 µM
HOP-62 NSCLC
  TGI: > 100 µM
HOP-92 NSCLC
  TGI: > 100 µM
HS 578T breast
  TGI: > 100 µM
HT29 colon
  TGI: > 100 µM
IGROV1 ovarian
  TGI: > 100 µM
K-562 leukemia
  TGI: > 100 µM
KM12 colon
  TGI: > 100 µM
M14 melanoma
  TGI: > 100 µM
MALME-3M melanoma
  TGI: > 100 µM
MCF7 breast
  TGI: > 100 µM
MDA-MB-231 breast
  TGI: > 100 µM
MDA-MB-435
  TGI: > 100 µM
MDA-N
  TGI: > 100 µM
MOLT-4 leukemia
  TGI: > 100 µM
NCI-H226 lung
  TGI: > 100 µM
NCI-H23 lung
  TGI: > 100 µM
NCI-H460 lung
  TGI: > 100 µM
NCI-H522 lung
  TGI: > 100 µM
OVCAR-3 ovarian
  TGI: > 100 µM
OVCAR-4 ovarian
  TGI: > 100 µM
OVCAR-5 ovarian
  TGI: > 100 µM
OVCAR-8 ovarian
  TGI: > 100 µM
PC-3 prostate
  TGI: > 100 µM
RXF 393 renal
  TGI: > 100 µM
SF-268 CNS
  TGI: > 100 µM
SF-295 CNS
  TGI: > 100 µM
SF-539 CNS
  TGI: > 100 µM
SK-MEL-28 melanoma
  TGI: > 100 µM
SK-MEL-5 melanoma
  TGI: > 100 µM
SK-OV-3 ovarian
  TGI: > 100 µM
SN12C renal
  TGI: > 100 µM
SNB-19 CNS
  TGI: > 100 µM
SNB-75 CNS
  TGI: > 100 µM
SR leukemia
  TGI: > 100 µM
SW-620 colon
  TGI: > 100 µM
T-47D breast
  TGI: > 100 µM
TK-10 renal
  TGI: > 100 µM
U251 CNS
  TGI: > 100 µM
UACC-257 melanoma
  TGI: > 100 µM
UACC-62 melanoma
  TGI: > 100 µM
UO-31 renal
  TGI: > 100 µM
